pEC50, pIC50: −log10 of the molar value.
Experiments:
Cbl-b = target: T1, Cbl-b (Homo sapiens, UniProt Q13191); assay: Cbl-b probe displacement HTRF binding assay; conditions: 0.4 nM biotinylated Cbl-b, 150 nM BODIPY probe
T1 construct: biotin (biotinylated)
Procedure, shortened: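 Biotinylated Cbl-b was preincubated with compound for 60 min at room temperature in HEPES/NaCl/Triton/TCEP/BSA buffer. BODIPY probe was added for 15 min, followed by streptavidin-terbium, and the HTRF signal was read. Displacement was normalised to DMSO and no-protein controls, and affinity was obtained from a four-parameter dose-response fit.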

Jurkat cells = assay: IL-2 secretion assay in CD3/CD28-activated Jurkat cells (AlphaLISA); type: cell-based; conditions: Homo sapiens, CD3/CD28 T Cell Activator, 24 h, IL-2 AlphaLISA
Procedure, shortened: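 Jurkat cells (50,000/well) were preincubated 1 h at 37° C with compound in a 16-point 1:2 series spanning 10 μM to 300 pM final. Cells were then activated with CD3/CD28 T cell activator, and secreted IL-2 was read by AlphaLISA. EC50 came from 4-parameter logistic fits.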

T1 sequence (Q13191 whole entry, species assumed): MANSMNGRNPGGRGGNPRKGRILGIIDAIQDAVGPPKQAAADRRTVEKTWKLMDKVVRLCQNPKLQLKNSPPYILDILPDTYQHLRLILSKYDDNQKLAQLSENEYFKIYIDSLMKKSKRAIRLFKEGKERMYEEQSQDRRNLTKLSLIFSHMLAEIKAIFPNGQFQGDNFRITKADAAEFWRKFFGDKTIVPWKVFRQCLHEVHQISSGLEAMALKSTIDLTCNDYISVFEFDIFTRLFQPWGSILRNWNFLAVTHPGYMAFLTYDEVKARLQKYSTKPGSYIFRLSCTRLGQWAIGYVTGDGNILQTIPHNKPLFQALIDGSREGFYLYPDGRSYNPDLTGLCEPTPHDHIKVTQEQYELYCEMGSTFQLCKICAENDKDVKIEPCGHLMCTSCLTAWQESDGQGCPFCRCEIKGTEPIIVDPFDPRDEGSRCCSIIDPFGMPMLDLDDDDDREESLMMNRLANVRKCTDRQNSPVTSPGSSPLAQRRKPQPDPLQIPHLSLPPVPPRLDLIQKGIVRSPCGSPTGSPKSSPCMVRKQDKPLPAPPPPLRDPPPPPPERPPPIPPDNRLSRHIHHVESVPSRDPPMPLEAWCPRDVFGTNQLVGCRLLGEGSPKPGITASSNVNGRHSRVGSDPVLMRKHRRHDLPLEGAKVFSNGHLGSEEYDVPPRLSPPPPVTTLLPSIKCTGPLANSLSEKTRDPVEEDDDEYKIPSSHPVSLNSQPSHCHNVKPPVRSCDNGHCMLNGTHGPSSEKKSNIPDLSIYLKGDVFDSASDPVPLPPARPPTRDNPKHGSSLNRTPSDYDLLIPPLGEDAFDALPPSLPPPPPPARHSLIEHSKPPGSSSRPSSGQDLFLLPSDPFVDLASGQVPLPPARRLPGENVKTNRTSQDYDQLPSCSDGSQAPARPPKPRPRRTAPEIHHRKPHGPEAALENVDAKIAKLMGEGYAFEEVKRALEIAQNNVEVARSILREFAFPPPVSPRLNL

pIC50 (Cbl-b) | pEC50 (Jurkat cells) | Compound
> 7.00 | 5.30 to 6.00 | Cn1cnnc1C1(c2cccc(-n3cc(C(F)(F)F)c4c(C#N)c[nH]c4c3=O)c2)CC2(CC2)C1 [Example 137, 6-{3-[5-(4-Methyl-4H-1,2,4-triazol-3-yl)spiro[2.3]hexan-5-yl]phenyl}-7-oxo-4-(trifluoromethyl)-1H,6H,7H-pyrrolo[2,3-c]pyridine-3-carbonitrile]
> 7.00 | 5.30 to 6.00 | CC(C)n1cnnc1C1(c2cccc(-n3cc(C4CC4)c4cc(CN5CCC[C@H](C)C5)[nH]c4c3=O)c2)CC2(CC2)C1 [Example 145, 4-Cyclopropyl-2-[[(3S)-3-methylpiperidin-1-yl]methyl]-6-[3-[5-(4-propan-2-yl-1,2,4-triazol-3-yl)spiro[2.3]hexan-5-yl]phenyl]-1H-pyrrolo[2,3-c]pyridin-7-one]
> 7.00 | > 7.00 | C[C@H]1CCCN(Cc2cc3c(C4CC4)cn(-c4cccc([C@]5(c6nncn6C(F)F)C[C@H](F)C5)c4)c(=O)c3[nH]2)C1 [Example 148, 2—{[(S)-3-methyl-1-piperidyl]methyl}-4-cyclopropyl-6-(m-{1-[4-(difluoromethyl)-4H-1,2,4-triazol-3-yl]-3-fluorocyclobutyl}phenyl)-1,6-dihydro-1,6-diaza-7-indenone]

The next lines start with the molecule.

Compound | pIC50 (Cbl-b) | pEC50 (Jurkat cells)
Cn1cnnc1[C@]1(c2cccc(-n3cc(C(F)(F)F)c4cn[nH]c4c3=O)c2)C[C@H](C)C1 [Example 140, 6-{3-[(1R,3S)-3-Methyl-1-(4-methyl-4H-1,2,4-triazol-3-yl)cyclobutyl]phenyl}-4-(trifluoromethyl)-1H,6H,7H-pyrazolo[3,4-c]pyridin-7-one] | > 7.00 | 6.00 to 7.00
Cn1cnnc1[C@]1(c2cccc(-n3cc(CO)c4cn[nH]c4c3=O)c2)C[C@H](C)C1 [Example 142, 4-(Hydroxymethyl)-6-{3-[(1R,3S)-3-methyl-1-(4-methyl-4H-1,2,4-triazol-3-yl)cyclobutyl]phenyl}-1H,6H,7H-pyrazolo[3,4-c]pyridin-7-one] | 5.30 to 6.00 | < 5.30
C[C@H]1CCCN(Cc2cc3c(C4CC4)cn(-c4cccc(C5(c6nncn6C6CC6)CC6(CC6)C5)c4)c(=O)c3[nH]2)C1 [Example 144, 4-cyclopropyl-6-[3-[5-(4-cyclopropyl-1,2,4-triazol-3-yl)spiro[2.3]hexan-5-yl]phenyl]-2-[[(3S)-3-methylpiperidin-1-yl]methyl]-1H-pyrrolo[2,3-c]pyridin-7-one] | > 7.00 | 6.00 to 7.00
C[C@H]1CCCN(Cc2cc3c(C4CC4)cn(-c4cccc(C5(c6nncn6CC(F)F)CC6(CC6)C5)c4)c(=O)c3[nH]2)C1 [Example 146, 4-Cyclopropyl-6-[3-[5-[4-(2,2-difluoroethyl)-1,2,4-triazol-3-yl]spiro[2.3]hexan-5-yl]phenyl]-2-[[(3S)-3-methylpiperidin-1-yl]methyl]-1H-pyrrolo[2,3-c]pyridin-7-one] | > 7.00 | 6.00 to 7.00
C[C@H]1CCCN(Cc2cc3c(C4CC4)cn(-c4cccc(C5(c6nncn6CC(F)(F)F)CC6(CC6)C5)c4)c(=O)c3[nH]2)C1 [Example 147, 4-Cyclopropyl-2-[[(3S)-3-methylpiperidin-1-yl]methyl]-6-[3-[5-[4-(2,2,2-trifluoroethyl)-1,2,4-triazol-3-yl]spiro[2.3]hexan-5-yl]phenyl]-1H-pyrrolo[2,3-c]pyridin-7-one] | > 7.00 | 5.30 to 6.00
C[C@H]1CCCN(Cc2cc3ncn(-c4cccc([C@]5(c6nncn6C(F)F)C[C@H](F)C5)c4)c(=O)c3[nH]2)C1 [Example 149, 2—{[(S)-3-methyl-1-piperidyl]methyl}-6-(m-{(1r,3S)-1-[4-(difluoromethyl)-4H-1,2,4-triazol-3-yl]-3-fluorocyclobutyl}phenyl)-1,6-dihydro-1,4,6-triaza-7-indenone] | > 7.00 | > 7.00
